The results in this text go back to publication doi:10.1101/2021.07.05.449867v2 (biorxiv, 2021).

The test system of the assay is ZRK. The assay can be described thus: NAD. Format: biochemical, Zygosaccharomyces rouxii. To be noted: 2000 uM NADPH/NADH; enzyme 1 ug/ml; optimal buffer.

For `COC(=O)CC(=O)Cc1cc(F)c(F)cc1F` [Sitagliptin K-INT, 3-oxo-4-(2,4,5-trifluoro-phenyl)-butyric acid methyl ester], the Km is 346 µM. On to `CC(=O)c1cc(C(F)(F)F)cc(C(F)(F)F)c1` [Aprepitant K-INT, 1-(3,5-bis-trifluoromethyl-phenyl)-ethanone], for which the Km was 186 µM.

As a reminder, the Km is the concentration of substrate that gives half-maximal velocity.
